These results are taken from article PMC12265377, “CC48 a new CB2R agonist/FAAH inhibitor dual drug blocks gastric cancer progression and overcomes paclitaxel resistance” (Journal of Experimental & Clinical Cancer Research : CR, 2025).

Broadly, the IC50 is the midpoint of a concentration-inhibition curve. As a reminder, the EC50 is the midpoint of the concentration-response curve.

Where two headings read alike, the source gives them in different places.

One data set concerns AGS cells. The data set is described as follows: MTT cytotoxicity assay. In kind it is cell-based, human. The following applies: read-out: Cytotoxic activity IC50±SEM. How it is done: (§1) Cell viability was checked with the MTT assay at 48 h and 72 h [24]in HGC27-S/R and AGS gastric cancer cell lines. On day 1, 5000 cells/well were seeded into 96-well plates in a volume of 100 µL. On day 2, each drug was added at the concentrations: 0.1µM, 1µM, 10µM, 30µM, 50µM, 100µM. In all the experiments, the various drug-solvents (ethanol, DMSO) were added in each control to evaluate a possible solvent cytotoxicity. After the established incubation time with drugs (48 h, 72 h), MTT (0.5 mg/mL) was added to each well, and after 3 h incubation at 37 °C, the supernatant was removed. The formazan crystals were solubilized using 100 µL of DMSO and the absorbance values at 570 and 630 nm were determined on the microplate reader Victor 3 from PerkinElmer Life Sciences. Results are expressed as mean ± SD of 3 independent experiments in triplicate.
(Tetrazolium dyes change colour on reduction, which living cells bring about.)

For a further data set, the system named is HGC27-R cells. The data set is described as follows: MTT cytotoxicity assay. It is filed as cell-based, human. The following applies: read-out: Cytotoxic activity IC50±SEM. The method, then: as §1
The test system of data set [1] is HGC27-S cells. The data set is described as follows: MTT cytotoxicity assay. In kind it is cell-based, human. Conditions: read-out: Cytotoxic activity IC50±SEM. How it is done: as §1
Data set [2] deals with HGC27-S cells. The data set is described as follows: Muse Ki67 cell proliferation assay. It is filed as cell-based, human. The text has this: After the specified drug treatments, the cells were processed with the Muse Ki67 cell proliferation kit, which identified actively proliferating cells based on the expression of Ki67, a nuclear protein present in the active phases of the cell cycle (G1, S, G2, and M phases) and absent in the resting G0 phase. The Muse Ki67 Proliferation Assay was used with the Guava Muse Cell Analyzer according to the manufacturer’s instructions (Luminex Corporation, Austin, USA). Briefly, the cells were stained after fixation and permeabilization procedures, using Hu Ki67 or Hu IgG1 control fluorochrome-conjugated antibodies to distinguish Ki67(+) or Ki67(-) cells, respectively. The software provided the percentage of both Ki67(+) and Ki67(-) cells.

The target in the next data set is P-gp (Homo sapiens, UniProt P08183). The data set is described as follows: P-gp interaction assay (Calcein-AM, MDCK-MDR1 cells). The method, then:
This experiment was carried out as described by Contino et al. with minor modifications. MDCK-MDR1 cells, stably overexpressing P-gp, (30.000 cells per well) were seeded into black CulturePlate96/wells plate with 100 µL medium and allowed to become confluent overnight. Each test compound solubilized in culture medium was added to cell monolayers, reaching the tested final concentrations (ranging from 0.1 to 100 µM). Each 96/wells plate was incubated at 37 °C for 30 min. […] Each well was washed 3 times with ice cold PBS. […] In these experimental conditions, Calcein cell accumulation in the absence and presence of tested compounds was evaluated and the fluorescence basal level was estimated in untreated cells. In treated wells the increase of fluorescence compared to basal level was measured. EC50 values were determined on the fluorescence increase percentage versus log [dose].

The subject of data set [3] is HGC27-S cells. The data set is described as follows: Western blot of proliferation pathway proteins. It is filed as cell-based, human. The following applies: 48 h, 6 µM AM630, 10 µM agonists. The method, then:
Western Blotting analysis was performed as previously described in both HGC27-S/R and AGS cells. Briefly, for each experimental condition the cells were lysed in ice-cold lysis buffer (50 mM Tris, 10 mM EDTA, 1% v/v Triton-X100), supplemented with the protease/phosphatase inhibitor cocktail set (Merck KGaA, Darmstadt, Germany), incubated on ice for 15 min and centrifuged at 13,000 × g for 15 min at 4 °C. Protein extracts were quantified by Micro BCA™ Protein Assay Kit (Thermo Fisher Scientific Inc., MA USA) and 40 µg of total protein extract was loaded on SDS-PAGE and immunoblotted with the following antibodies: CB1R and CB2R (1:500, rabbit polyclonal, Abcam, Cambridge, UK), P-TSC2 (Ser939) and TSC2 (1:1000Cell Signaling, Beverly, MA, USA), PI3K (1:1000Cell Signaling, Beverly, MA, USA), P-P70 (Thr389) and P70 (1:1000Cell Signaling, Beverly, MA, USA), P-Akt (Ser473 Thr308) and Akt (1:1000Cell Signaling, Beverly, MA, USA), P-S6 (Ser235/236) and S6 (1:1000Cell Signaling, Beverly, MA, USA), 4EBP1(1:1000Cell Signaling, Beverly, MA, USA), P-ERK(Thr202/Tyr204) and ERK (1:1000Cell Signaling, Beverly, MA, USA), PPRγ (1:1000Cell Signaling, Beverly, MA, USA), Phospho-SAPK/JNK (Thr183/Tyr185) and JNK2 (1:1000 Cell Signaling, Beverly, MA, USA), Phospho-c-Jun (Ser63) and c-Jun (1:1000 Cell Signaling, Beverly, MA, USA), caspase 3/7 (1:1000 Cell Signaling, Beverly, MA, USA), Phospho-βcatenin (Ser675) and βcatenin (1:1000 Cell Signaling, Beverly, MA, USA), vimentin (1:1000Cell Signaling, Beverly, MA, USA), P-cofillin (Ser3) and cofillin (1:1000Cell Signaling, Beverly, MA, USA), actin (1:4000Cell Signaling, Beverly, MA, USA). Subsequently, the membranes were incubated with the corresponding horseradish peroxidase (HRP)-conjugated secondary antibodies (Bio-Rad, Hercules, CA, USA). An enhanced chemiluminescence kit (Bio-Rad, Hercules, CA, USA) was used. […] Total protein expression was quantified using the ImageJ software (http://rsb.info.nih.gov/ij/). […]
For orientation: In western blotting, separated proteins are transferred to a membrane and probed.

In the next data set the test system is CB2R. More on the design: method as in PMID 7776818, PMID 10188977, PMID 36657299, PMID 20393015. Conditions: cited from earlier work.
The mark [4] stands for this setting: read-out: P-gp activity, EC50, ± SEM, MDCK-MDR1 cells, Calcein-AM.
[5] abbreviates: HGC27-S, representative flow cytometry chart, 48 h, 10 µM CC48, PTX, single or combined as labelled.

Chain of P-gp (P08183 whole entry): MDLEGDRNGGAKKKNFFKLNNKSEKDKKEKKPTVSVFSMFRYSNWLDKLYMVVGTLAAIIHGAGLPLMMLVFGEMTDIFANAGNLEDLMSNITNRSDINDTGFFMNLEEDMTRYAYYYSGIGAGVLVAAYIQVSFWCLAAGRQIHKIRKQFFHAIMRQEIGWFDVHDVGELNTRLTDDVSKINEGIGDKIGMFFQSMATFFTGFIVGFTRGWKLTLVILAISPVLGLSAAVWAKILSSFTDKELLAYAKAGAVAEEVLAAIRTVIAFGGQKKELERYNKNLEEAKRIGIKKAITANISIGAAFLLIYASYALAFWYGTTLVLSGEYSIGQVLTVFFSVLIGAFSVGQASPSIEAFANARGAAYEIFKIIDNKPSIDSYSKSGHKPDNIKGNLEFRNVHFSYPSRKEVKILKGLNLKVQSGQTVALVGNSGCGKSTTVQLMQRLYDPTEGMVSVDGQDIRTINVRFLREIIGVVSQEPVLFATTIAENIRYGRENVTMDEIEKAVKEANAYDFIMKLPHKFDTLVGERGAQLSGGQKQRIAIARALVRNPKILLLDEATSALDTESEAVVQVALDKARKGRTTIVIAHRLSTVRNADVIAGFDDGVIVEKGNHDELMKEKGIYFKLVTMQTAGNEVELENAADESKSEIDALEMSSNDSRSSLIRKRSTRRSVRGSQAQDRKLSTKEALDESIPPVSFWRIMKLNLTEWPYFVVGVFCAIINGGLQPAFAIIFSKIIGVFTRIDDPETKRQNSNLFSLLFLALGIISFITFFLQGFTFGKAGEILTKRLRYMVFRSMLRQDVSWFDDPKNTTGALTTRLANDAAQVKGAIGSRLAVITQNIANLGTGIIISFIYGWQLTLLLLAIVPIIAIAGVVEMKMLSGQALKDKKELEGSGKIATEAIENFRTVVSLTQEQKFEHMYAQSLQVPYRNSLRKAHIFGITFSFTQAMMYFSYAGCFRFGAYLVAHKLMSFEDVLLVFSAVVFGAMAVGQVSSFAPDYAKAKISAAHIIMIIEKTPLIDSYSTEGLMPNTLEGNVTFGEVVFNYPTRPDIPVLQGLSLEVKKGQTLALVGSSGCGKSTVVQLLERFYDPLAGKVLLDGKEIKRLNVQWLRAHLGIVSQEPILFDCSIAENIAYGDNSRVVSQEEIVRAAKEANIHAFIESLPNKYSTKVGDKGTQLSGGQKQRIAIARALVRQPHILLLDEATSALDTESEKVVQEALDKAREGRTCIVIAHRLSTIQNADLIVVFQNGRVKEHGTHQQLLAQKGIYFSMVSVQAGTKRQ

Turning to `COc1ccc(C(=O)c2c(C)n(CCN3CCOCC3)c3cc(I)ccc23)cc1` [AM630, reference compound], the IC50 came to 13.4 µM in the data set with AGS cells (48h); 7.5 ± 1.2 µM with AGS cells (72h); 19.6 ± 6.15 µM with HGC27-R cells (48h); 19.1 ± 0.93 µM with HGC27-R cells (72h); 20.4 µM with HGC27-S cells [1] (48h); 13.7 ± 1.4 µM in the data set on HGC27-S cells [1] (72h). Also, the “percentage of Ki67+ cells” value in the data set on HGC27-S cells [2] turned out to be 40.1%. For the same molecule, the “interaction with P-gp (in words)” value at P-gp (MDCK-MDR1 cells, Calcein-AM) is “low interaction with the pump”. The concentration giving a half-maximal response (EC50) on P-gp (setting [4]) was 16.8 ± 3.2 µM; in the data set on CB2R, 0.0009 µM. Besides, the “expression/activation of PI3K/Akt/mTOR and ERK1/2 pathway proteins (western blot)” value (shortened to “expression/activation”) in the data set on HGC27-S cells [3] is recorded as “significant decrease in PI3K protein expression”.

`CCCCCNc1ccccc1C(=O)NC12CC3CC(CC(C3)C1)C2` [ASF151]: the IC50 in the data set on AGS cells (48h) turned out to be 33 µM; in the data set on AGS cells (72h), 42.3 ± 2.2 µM; with HGC27-R cells (48h) it was 27.4 µM; in the data set on HGC27-R cells (72h), 28 ± 0.63 µM; in the data set with HGC27-S cells [1] (48h), 49 µM; in the data set on HGC27-S cells [1] (72h), 30.1 ± 0.95 µM. Besides, in the data set on HGC27-S cells [2], the “percentage of Ki67+ cells” value is recorded as 38.6%. In addition, the “interaction with P-gp (in words)” value at P-gp (MDCK-MDR1 cells, Calcein-AM) was “excluded interaction with P-gp”. Besides, the figures for the concentration giving a half-maximal response (EC50) at P-gp (setting [4]) and with CB2R were over 100 µM and 0.56 µM, respectively. Further, in the data set on HGC27-S cells [3], the “expression/activation” value was “no effect was detected”.

As to `O=C(NC12CC3CC(CC(C3)C1)C2)c1ccccc1OCc1ccccc1` [CC48], the IC50 came to 57 µM in the data set on AGS cells (Homo sapiens, 48h); 9.8 µM in the data set on AGS cells (Homo sapiens, 72h); 21.01 ± 0.002 µM in the data set on HGC27-R cells (48h); 21 µM in the data set with HGC27-R cells (Homo sapiens, 48 h); 21.2 ± 0.41 µM with HGC27-R cells (Homo sapiens, 72 h); 11.6 µM with HGC27-S cells [1] (Homo sapiens, 48h). Further, the concentration for half-maximal inhibition (IC50) in the data set on HGC27-S cells [1] (Homo sapiens, 72h) worked out at 14.5 ± 0.34 µM. Also, the “percentage of Ki67+ cells” value in the data set with HGC27-S cells [2] (HGC27-S, 48 h, combination with 4 nM PTX (10 µM compound; 6 µM AM630), PTX alone 58.1%) was 42.3%; in the data set with HGC27-S cells [2] (HGC27-S, 48 h, single treatment (10 µM CC48; 4 nM PTX), control 80.50%), 75.75%. Also, the “Ki67(+) cells” value in the data set on HGC27-S cells [2] (setting [5]) worked out at 75.75%. The “Ki67(-) cells” value with HGC27-S cells [2] (setting [5]) came to 24.25%. For the same molecule, the EC50 on P-gp was 7.75 ± 1.25 µM; with CB2R it was 0.124 µM. At P-gp (MDCK-MDR1 cells, Calcein-AM), the “interaction with P-gp (in words)” value is reported as “moderate interaction with P-gp”. Also, the “expression/activation” value in the data set with HGC27-S cells [3] was “significant decrease in PI3K protein expression”.
